Assay results reported in article PMC11845477, “Exploring the principles behind antibiotics with limited resistance” (Nature Communications, 2025).
Read-outs that look alike come from different tables or passages of the source. Where a SMILES comes first, the peptide text is derived from it. Bridges are numbered along the chain shown (N, C = ends). [ ]: non-standard residue; d: D form. The star is where a group is joined. X2 = CC[C@H](C)CCCCC(=O)*; Dab = NCC[C@H](N)C(=O)O

Assays:
[1] = tested on: E. coli BW25113: pUCacrAB; experiment: AcrAB-TolC efflux overexpression screen, relative MIC; format: cell-based, Escherichia coli; conditions: pUCacrAB vs empty pUC118 control
Protocol: (§1) Fig. 6 The impact of AcrAB-TolC activity on antibiotic susceptibility. E. coli strains with AcrAB-TolC depletion (BW25113-ΔacrB) and overexpression (BW25113: pUCacrAB) were treated with various antibiotics, and the level of resistance was determined as minimum inhibitory concentration (MIC) relative to a wild-type strain, presented on a logarithmic scale (log2). Each bar represents the mean resistance level (susceptibility, i.e., level of resistance < 0; and resistance, i.e., level of resistance > 0) to antibiotics induced by acrAB overexpression (blue bars; E. coli with a multicopy plasmid of the acrAB genes (pUCacrAB)) and acrB deletion (red bars; mutant E. coli with acrB gene deletion (ΔacrB)) compared to the wild-type. Data are presented as mean values of 3 biological replicates ± SD. […] Detailed information on antibiotic and bacterial strain abbreviations is provided in Supplementary Data 1. Source data are provided as a Source Data file. For information on mode of action groups, refer to Table 1.
(§2) For the efflux deficiency screen, the ΔacrB mutant of E. coli K12 BW25113[86] and its equivalent wild-type control strain with intact gene were utilized. In contrast, BW25113 carrying a multicopy acrAB plasmid (pUCacrAB)[87] and its control strain harboring an empty pUC118 plasmid were used to overexpress the acrAB efflux system. According to established protocols via P1 transduction, the suitable acrB deletion mutant (ΔacrB BW25113) was created, while the pUCacrAB plasmid was kindly provided by Kunihiko Nishino and Akihito Yamaguchi (Osaka University, Osaka, Japan). In a prior study, both strains were employed. Since the copy number of the plasmid carrying the efflux pump is controlled by native promoters, external induction is unnecessary.
(§3) Antibiotic susceptibilities of these strains were evaluated using a modified version of the standard broth dilution method. In 96-well microtiter plates containing fresh MHB medium, or supplemented MS medium in case of SCH79797, ten-step serial dilutions of an antibiotic from a stock solution were made (2 wells per antibiotic concentration per strain). The two wells contained only supplemented media without any antibiotics […]. Strains were incubated overnight at 37 °C with continuous agitation. Additionally, plasmid containing strains were grown in the presence of 100 µg/mL ampicillin. The culture was diluted to yield a cell suspension with 5 ×10^5 cells/mL and then inoculated into the wells of the microtiter plate. To determine the medium’s background OD value, the first column of the 96-well plate contained solely MHB without inoculum. Prior to the measurement, the plates were incubated at 37 °C with continuous shaking at 900 rpm with 3 mm throw. OD600 values were determined in a microplate reader after 18 hours of incubation (Biotek Synergy 2). The minimum inhibitory concentration (MIC) was determined as the lowest concentration of antibiotic at which the OD600 values were less than 0.05 after subtracting the background value. The log2 of the relative MIC was computed using the following equation:2 log2relativeMICpUCacrAB=MICpUCacrAB/MICpUC118 3 log2relativeMICΔacrB=MICΔacrB/MICwt

E. coli BW25113-ΔacrB = experiment: AcrAB-TolC efflux deficiency screen, relative MIC; format: cell-based, Escherichia coli; conditions: ΔacrB vs wild-type
Protocol: as §1, §2, §3

[2] = tested on: A. baumannii ATCC 17978 (SEN) and A. baumannii ATCC BAA-1605 (MDR); experiment: Frequency-of-resistance (FoR) assay, relative MIC of mutants; format: cell-based, Acinetobacter baumannii; conditions: for MIC: Acinetobacter baumannii
Protocol: The susceptibility of antibiotics to resistance development was evaluated in two strains of each bacterial species: a multidrug-resistant strain and an antibiotic-sensitive strain of Escherichia coli, Klebsiella pneumoniae, Acinetobacter baumannii, and Pseudomonas aeruginosa. To explore first-step resistance, we previously used a standard protocol for spontaneous frequency-of-resistance analysis (FoR assay) at multiple concentrations of each antibiotic[10],[28],[31]–[33]. […] For all other combinations, approximately 10^10 bacterial cells were exposed to one of each antibiotic on agar plates for two days at concentrations where the given strain is susceptible. We examined resistance levels by contrasting the minimum inhibitory concentration (MICs) of the mutated strains to the original wild-type bacterial strain (i.e., relative MIC).
To estimate the frequency of spontaneous mutations that confer resistance in a microbial population, we conducted a frequency of resistance (FoR) assay following established protocols[10],[31]–[33]. […] Prior to plating, bacteria were grown overnight in MHB medium at 37 °C and 250 RPM, then centrifuged and washed in MHB. All experiments were performed in triplicate, and plates were incubated at 37 °C for 48 hours. Total colony-forming units (CFUs) were determined by plating appropriate dilutions onto antibiotic-free MHB agar. Resistance frequencies were calculated by dividing the number of resistant colonies by the initial viable cell count. From the plates with the highest antibiotic concentration, ten colonies were selected for MIC determination and whole-genome sequencing.
A robotic liquid handling system was used to automatically prepare a 11 to 16-step serial dilution in 384-well microtiter plates (Greiner). A final concentration of 5 × 10^5 bacterial cells per mL were inoculated into each well containing 60 µL MHB medium. Bacterial cultures were incubated at 37 °C with continuous shaking (Infors shaker, 900 rpm with 3 mm throw) for 18 hours (2 replicates from each). Cell growth was monitored by measuring the optical density (OD600 values, using Biotek Synergy microplate reader). MIC was defined as the antibiotic concentration of complete growth inhibition (i.e., OD600 < 0.05). Relative MIC was calculated as follows:1 relativeMIC=MICevolved/MICancestor […]
Supplementary Figure 3. Resistance levels following the frequency of resistance assay across bacterial strains. The level of resistance was measured as the fold change in relative MIC between evolved and ancestral strains. Data are grouped by bacterial strain (A. baumannii (AB), E. coli (EC), K. pneumoniae (KP), and P. aeruginosa (PA)) and categorized as either multidrug-resistant (MDR) or sensitive (SEN). Each data point represents a laboratory evolved line, and boxplots show the median, first and third quartiles, with whiskers indicating the 5th and 95th percentiles. […]
analysis was performed using two-sided Dunn’s post-hoc test with Benjamini-Hochberg correction for multiple comparisons (**/ * indicates p < 0.01/ 0.05). For detailed information on antibiotic and bacterial species, see Supplementary Table 1. For mode of action groups, refer to Table 1. Source data are provided as a Source Data file.

[3] = Acinetobacter baumannii ATCC 17978 (AB-SEN), evolved line 1 versus ancestor
[4] = Acinetobacter baumannii ATCC 17978 (AB-SEN), evolved line 2 versus ancestor
[5] = Acinetobacter baumannii ATCC 17978 (AB-SEN), evolved line 3 versus ancestor
[6] = read-out: MIC of evolved line, Acinetobacter baumannii ATCC 17978 (AB-SEN), evolved line 1
[7] = read-out: MIC of evolved line, Acinetobacter baumannii ATCC 17978 (AB-SEN), evolved line 2
[8] = read-out: MIC of evolved line, Acinetobacter baumannii ATCC 17978 (AB-SEN), evolved line 3

Compound	Relative MIC (log2) ([1]; replicate 1)	Relative MIC (log2) ([1]; replicate 2)	Relative MIC (log2) ([1]; replicate 3)	Relative MIC (log2) (E. coli BW25113-ΔacrB; replicate 1)	Relative MIC (log2) (E. coli BW25113-ΔacrB; replicate 2)	Relative MIC (log2) (E. coli BW25113-ΔacrB; replicate 3)	Relative MIC [2, 3]	Relative MIC [2, 4]	Relative MIC [2, 5]	MIC [2, 6] [µg/mL]	MIC [2, 7] [µg/mL]	MIC [2, 8] [µg/mL]	also measured
CN[C@@H]1[C@@H](O[C@H]2O[C@H](CO)[C@@H](N)[C@H](O)[C@H]2O)OC2C[C@@H](N)[C@@H](O[C@H]3[C@H](O)[C@@H](O)[C@H](N)C[C@@H]3N)OC2[C@@H]1O (some centres unmarked) [Apramycin]	0	0	0	1	1	1	8	16	8	32	64	32	
Nc1nc(-n2cc(C(=O)O)c(=O)c3cc(F)c(N4CC(O)C4)c(Cl)c32)c(F)cc1F [Delafloxacin]	2	2	2	-4	-4	-4	8	4	8	0.5	0.25	0.5	
C[C@H]1c2cccc(O)c2C(=O)C2=C(O)[C@]3(O)C(=O)C(C(N)=O)=C(O)[C@@H](N(C)C)[C@@H]3[C@@H](O)[C@@H]21 [Doxycycline]	0	0	0	-2.34	-2.34	-2.34	1	1	1				
CN(C)[C@@H]1C(O)=C(C(N)=O)C(=O)[C@@]2(O)C(O)=C3C(=O)c4c(O)c(NC(=O)CN5CCCC5)cc(F)c4C[C@H]3C[C@@H]12 [Eravacycline]	0	0	0	-2.34	-2.34	-2.34	8	16	8	0.5	1	0.5	Relative MIC ([2]; Acinetobacter baumannii ATCC BAA 1605 (AB-MDR), evolved line 1 versus ancestor): 4; Relative MIC ([2]; Acinetobacter baumannii ATCC BAA 1605 (AB-MDR), evolved line 2 versus ancestor): 4; Relative MIC ([2]; Acinetobacter baumannii ATCC BAA 1605 (AB-MDR), evolved line 3 versus ancestor): 8; MIC ([2]; read-out: MIC of evolved line, Acinetobacter baumannii ATCC BAA 1605 (AB-MDR), evolved line 1): 8 µg/mL; MIC ([2]; read-out: MIC of evolved line, Acinetobacter baumannii ATCC BAA 1605 (AB-MDR), evolved line 2): 8 µg/mL; MIC ([2]; read-out: MIC of evolved line, Acinetobacter baumannii ATCC BAA 1605 (AB-MDR), evolved line 3): 16 µg/mL
CNC(C)C1CCC(N)C(OC2C(N)CC(N)C(OC3OCC(C)(O)C(NC)C3O)C2O)O1 (centres unmarked) [Gentamicin]	0	0	0	0	0	0	32	16	64	16	8	32	
O=c1ccc2ncc(=O)n3c2n1C[C@H]3CN1CCC(NCc2cc3c(cn2)OCCC3)CC1 [Gepotidacin]	2	2	2	-4	-4	-4	16	4	16		8		
COc1c(N2C[C@@H]3CCCN[C@@H]3C2)c(F)cc2c(=O)c(C(=O)O)cn(C3CC3)c12 [Moxifloxacin]										0.5	2	1	
CN(C)c1cc(CNCC(C)(C)C)c(O)c2c1C[C@H]1C[C@H]3[C@H](N(C)C)C(O)=C(C(N)=O)C(=O)[C@@]3(O)C(O)=C1C2=O [Omadacycline]	0.585	0.585	0.585	-2.34	-2.34	-2.34	8	8	8	4	4	4	
CC[C@H](C)CCCCC(=O)N[C@@H](CCN)C(=O)N[C@H](C(=O)N[C@@H](CCN)C(=O)N[C@H]1CCNC(=O)[C@H]([C@@H](C)O)NC(=O)[C@H](CCN)NC(=O)[C@H](CCN)NC(=O)[C@H](CC(C)C)NC(=O)[C@@H](Cc2ccccc2)NC(=O)[C@H](CCN)NC1=O)[C@@H](C)O [Polymyxin B] (X2-[Dab]T[Dab][Dab][Dab][dF]L[Dab][Dab]T; lactam 4-C (inferred); N-terminus assumed)	0	0	0	0	0	0							
C[C@@H]1CN2c3c(cc4c(N5C(=O)OC[C@@H]5C)noc4c3F)CC3(C(=O)NC(=O)NC3=O)[C@H]2[C@H](C)O1 [Zoliflodacin]	2	2	2	-4	-4	-4							
polymyxin-B													MIC of evolved line ([2]; Acinetobacter baumannii ATCC 17978 (AB-SEN), evolved line 1): 0.5 µg/mL; MIC of evolved line ([2]; Acinetobacter baumannii ATCC 17978 (AB-SEN), evolved line 2): 0.5 µg/mL; MIC of evolved line ([2]; Acinetobacter baumannii ATCC 17978 (AB-SEN), evolved line 3): 0.5 µg/mL; MIC of evolved line ([2]; Acinetobacter baumannii ATCC BAA 1605 (AB-MDR), evolved line 3): 16 µg/mL
